In ChEMBL document CHEMBL1152169, “Synthesis and structure-activity relationships of selective norepinephrine reuptake inhibitors (sNRI) with improved pharmaceutical characteristics” (Bioorg Med Chem Lett, 2008):
Active and inactive are the calls of the source. The rule behind the calls is not given here.

Molecular target: Sodium-dependent dopamine transporter (Homo sapiens, UniProt Q01959)
Assay: Inhibition of dopamine uptake at human dopamine transporter

Compound	Activity
CNC[C@]1(O)Cc2ccccc2[C@@H]1Oc1cc(F)ccc1C	inactive
CNC[C@]1(O)Cc2ccccc2[C@@H]1Oc1cccc(C)c1C	inactive
CNC[C@@]1(O)Cc2ccccc2[C@H]1Oc1ccccc1C	inactive
CNC[C@]1(O)Cc2ccccc2[C@@H]1Oc1cccc(O)c1C	inactive
CNCC1(O)Cc2ccccc2C1Oc1ccccc1C (racemic)	inactive
CNC[C@@H]1Cc2ccccc2[C@@H]1Oc1ccccc1C	inactive
CNC[C@]1(O)Cc2ccccc2[C@@H]1Oc1ccccc1C	inactive
CNC[C@]1(O)Cc2ccccc2[C@@H]1Oc1ccccc1Cl	inactive
CCNCC1(O)Cc2ccccc2C1Oc1ccccc1C (racemic)	inactive
CNC[C@]1(O)Cc2ccccc2[C@@H]1Oc1ccc(O)cc1C	inactive
CNC[C@]1(O)Cc2ccccc2[C@@H]1Oc1ccccc1F	inactive
CNC[C@]1(O)Cc2ccccc2[C@@H]1Oc1cccc(F)c1C	inactive
CNC[C@]1(O)Cc2ccccc2[C@@H]1Oc1ccccc1CO	inactive
CCc1ccccc1O[C@H]1c2ccccc2C[C@@]1(O)CNC	inactive
CNCC1(O)Cc2ccccc2C1Sc1ccccc1C (racemic)	inactive
Cc1ccccc1OC1c2ccccc2CC1(O)CNCCO (racemic)	inactive
Cc1ccccc1O[C@H]1c2ccccc2C[C@@]1(O)CN	inactive
CNC[C@]1(O)Cc2ccccc2[C@@H]1Oc1ccc(C)cc1C	inactive
CNC[C@]1(OC)Cc2ccccc2[C@@H]1Oc1ccccc1C	inactive
Cc1ccccc1OC1c2ccccc2CC1(O)CN (racemic)	inactive
CNC[C@]1(O)Cc2ccccc2[C@@H]1Oc1ccccc1-c1cccc2ccccc12	inactive
CNC[C@]1(O)Cc2ccccc2[C@@H]1Oc1ccc(F)cc1C	inactive
CNC[C@]1(O)Cc2ccccc2[C@@H]1Oc1ccccc1SC	inactive
CNC[C@]1(O)Cc2ccccc2[C@@H]1Oc1c(C)cccc1F	inactive
CNCC1(O)Cc2ccccc2C1Cc1ccccc1C (racemic)	inactive
CNC[C@]1(O)Cc2ccccc2[C@@H]1Oc1ccccc1OC	inactive
